In US20250312352A1, “GLP-1R MODULATING COMPOUNDS” (Gilead Sciences, Inc., priority 2021, published 2025) one finds EC50 data, which are given here for 22 compounds.

The target in this experiment is T1, GLP-1R (Homo sapiens, UniProt P43220).
T1 construct: host or cells: CHO cells
Description: GLP-1R activation cAMP assay (Assay 1 or Assay 2). Type of experiment: cell-based. The settings on record: cAMP increase in CHO cells stably expressing GLP-1R; compounds run on one of the two cAMP assays. The protocol: GLP-1R ACTIVATION—cAMP Assay 1
GLP-1R activation by compounds of the present disclosure was quantified by measuring cAMP increase in CHO cells stably expressing GLP-1R (MultiSpan product #C1267-1a). The cells were harvested and plated in growth medium (DMEM/F-12 (Corning product #10-090-CV) supplemented with 10% FBS (HyClone product #SH30071-03), penicillin/streptomycin (Corning product #30-002CI) and 10 μg/ml puromycin (Gibco product #A11138-03)) at 1,000 cells/well in a 384-well plate (Greiner product #781080). The cells were then incubated overnight at 37° C., 5% CO2. The next day, the medium was removed and the cells were washed with DPBS (Corning product #21-031-CM) before adding the assay medium (HBSS, Corning product #21-023-CV) with 20 mM Hepes (Gibco product #15630-080) and 0.1% BSA (Rockland Immunochemicals product #BSA-1000)). Following the medium change, the cells were incubated for 1 hour at 37° C., 5% CO2. The tested GLP-1 compound was added to the cells in a 10-point dose response followed by a 30-minute incubation at 37° C., 5% CO2. cAMP concentration increase was then detected using Cisbio's cAMP Gs Dynamic Kit (product #62AM4PEC) according to the manufacturer's protocol. The response was plotted against the log of the agonist concentration and fitted to a sigmoidal equation to determine the EC50.
GLP-1R ACTIVATION—cAMP Assay 2
GLP-1R activation by small molecule agonists was quantified by measuring cAMP increase in CHO cells stably expressing GLP-1R (MultiSpan product #C1267-1a). 50 nL of agonists were pre-spotted in a 10-point dose response onto 384-well plate (Corning product #CL3826) using the Labcyte Echo System.

T1 sequence (P43220 24-463): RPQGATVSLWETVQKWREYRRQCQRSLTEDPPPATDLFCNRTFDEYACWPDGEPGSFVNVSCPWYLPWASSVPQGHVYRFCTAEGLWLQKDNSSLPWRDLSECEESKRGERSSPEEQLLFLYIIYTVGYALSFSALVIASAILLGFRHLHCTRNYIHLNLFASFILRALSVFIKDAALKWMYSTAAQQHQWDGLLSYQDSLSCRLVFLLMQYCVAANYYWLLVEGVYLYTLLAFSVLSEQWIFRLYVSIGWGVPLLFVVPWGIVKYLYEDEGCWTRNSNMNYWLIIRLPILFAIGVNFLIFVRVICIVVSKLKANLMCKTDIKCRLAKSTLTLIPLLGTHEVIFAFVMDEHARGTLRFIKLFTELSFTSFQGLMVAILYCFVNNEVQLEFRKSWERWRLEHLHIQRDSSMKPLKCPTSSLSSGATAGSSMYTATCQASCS

Turning to `CN(C)C(=O)c1ccc(COc2cccc(-c3cc(F)c(Cc4nc5ccc(C(=O)O)cc5n4C[C@@H]4CCO4)cc3F)n2)cn1` [Example 44, (S)-2-(4-(6-((6-(dimethylcarbamoyl)pyridin-3-yl)methoxy)pyridin-2-yl)-2,5-difluorobenzyl)-1-(oxetan-2-ylmethyl)-1H-benzo[d]imidazole-6-carboxylic acid], the EC50 is 75.3 nM.

On to `CNC(=O)c1cc(Cl)c(COc2cccc(-c3cc(F)c(Cc4nc5ccc(C(=O)O)cc5n4C[C@@H]4CCO4)cc3F)n2)cn1` [Example 46, (S)-2-(4-(6-((4-chloro-6-(methylcarbamoyl)pyridin-3-yl)methoxy)pyridin-2-yl)-2,5-difluorobenzyl)-1-(oxetan-2-ylmethyl)-1H-benzo[d]imidazole-6-carboxylic acid], for which the concentration for a half-maximal effect (EC50) amounted to 0.14 nM. This EC50 is about 540-fold lower than that of the compound before. The value for `O=C(O)c1ccc2nc(Cc3cc(F)c(-c4cccc(OCc5ncc(Cl)s5)n4)cc3F)n(C[C@@H]3CCO3)c2c1` [Example 47, (S)-2-(4-(6-((5-chlorothiazol-2-yl)methoxy)pyridin-2-yl)-2,5-difluorobenzyl)-1-(oxetan-2-ylmethyl)-1H-benzo[d]imidazole-6-carboxylic acid] was 0.09 nM; that for `Cn1c(COc2cccc(-c3cc(F)c(Cc4nc5ccc(C(=O)O)cc5n4C[C@@H]4CCO4)cc3F)n2)nc2ccccc21` [Example 48, (S)-2-(2,5-difluoro-4-(6-((1-methyl-1H-benzo[d]imidazol-2-yl)methoxy)pyridin-2-yl)benzyl)-1-(oxetan-2-ylmethyl)-1H-benzo[d]imidazole-6-carboxylic acid] was 2.33 nM. `O=C(O)c1ccc2nc(Cc3cc(F)c(-c4cccc(OCc5nnc(Cl)s5)n4)cc3F)n(C[C@@H]3CCO3)c2c1` [Example 49, (S)-2-(4-(6-((5-chloro-1,3,4-thiadiazol-2-yl)methoxy)pyridin-2-yl)-2,5-difluorobenzyl)-1-(oxetan-2-ylmethyl)-1H-benzo[d]imidazole-6-carboxylic acid]: the EC50 was 0.65 nM. Compound `O=C(O)c1ccc2nc(Cc3cc(F)c(-c4cccc(OCc5csc(Cl)n5)n4)cc3F)n(C[C@@H]3CCO3)c2c1` [Example 50, (S)-2-(4-(6-((2-chlorothiazol-4-yl)methoxy)pyridin-2-yl)-2,5-difluorobenzyl)-1-(oxetan-2-ylmethyl)-1H-benzo[d]imidazole-6-carboxylic acid] gave an EC50 of 0.67 nM. The EC50 values of the last two compounds are within 1.5-fold of each other. The result for `O=C(O)c1ccc2nc(Cc3cc(F)c(-c4cccc(OCc5cc(F)c(Br)s5)n4)cc3F)n(C[C@@H]3CCO3)c2c1` [Example 51, (S)-2-(4-(6-((5-bromo-4-fluorothiophen-2-yl)methoxy)pyridin-2-yl)-2,5-difluorobenzyl)-1-(oxetan-2-ylmethyl)-1H-benzo[d]imidazole-6-carboxylic acid] reads 0.21 nM. The result for `N#Cc1cc(F)c(COc2cccc(-c3cc(F)c(Cc4nc5ccc(C(=O)O)cc5n4C[C@@H]4CCO4)cc3F)n2)s1` [Example 52, (S)-2-(4-(6-((5-cyano-3-fluorothiophen-2-yl)methoxy)pyridin-2-yl)-2,5-difluorobenzyl)-1-(oxetan-2-ylmethyl)-1H-benzo[d]imidazole-6-carboxylic acid] reads 0.13 nM; that for `O=C(O)c1ccc2nc(Cc3cc(F)c(-c4cccc(OCc5nc(C(F)(F)F)cs5)n4)cc3F)n(C[C@@H]3CCO3)c2c1` [Example 53, (S)-2-(2,5-difluoro-4-(6-((4-(trifluoromethyl)thiazol-2-yl)methoxy)pyridin-2-yl)benzyl)-1-(oxetan-2-ylmethyl)-1H-benzo[d]imidazole-6-carboxylic acid], 0.38 nM. The result for `O=C(O)c1ccc2nc(Cc3cc(F)c(-c4cccc(OCc5cc(C(F)(F)F)cs5)n4)cc3F)n(C[C@@H]3CCO3)c2c1` [Example 55, (S)-2-(2,5-difluoro-4-(6-((4-(trifluoromethyl)thiophen-2-yl)methoxy)pyridin-2-yl)benzyl)-1-(oxetan-2-ylmethyl)-1H-benzo[d]imidazole-6-carboxylic acid] reads 0.44 nM; that for `O=C(O)c1ccc2nc(Cc3cc(F)c(-c4cccc(OCc5ncc(OCC(F)F)s5)n4)cc3F)n(C[C@@H]3CCO3)c2c1` [Example 56, (S)-2-(4-(6-((5-(2,2-difluoroethoxy)thiazol-2-yl)methoxy)pyridin-2-yl)-2,5-difluorobenzyl)-1-(oxetan-2-ylmethyl)-1H-benzo[d]imidazole-6-carboxylic acid], 7.19 nM.

In turn, `O=C(O)c1ccc2nc(Cc3cc(F)c(-c4cccc(OCc5ncc(OCC(F)(F)F)s5)n4)cc3F)n(C[C@@H]3CCO3)c2c1` [Example 57, (S)-2-(2,5-difluoro-4-(6-((5-(2,2,2-trifluoroethoxy)thiazol-2-yl)methoxy)pyridin-2-yl)benzyl)-1-(oxetan-2-ylmethyl)-1H-benzo[d]imidazole-6-carboxylic acid] registered an EC50 of 0.73 nM. This EC50 is about 9.8-fold lower than that of the compound before. The result for `O=C(O)c1ccc2nc(Cc3cc(F)c(-c4cccc(OCc5ncc(C(F)F)s5)n4)cc3F)n(C[C@@H]3CCO3)c2c1` [Example 58, (S)-2-(4-(6-((5-(difluoromethyl)thiazol-2-yl)methoxy)pyridin-2-yl)-2,5-difluorobenzyl)-1-(oxetan-2-ylmethyl)-1H-benzo[d]imidazole-6-carboxylic acid] reads 0.14 nM; that for `O=C(O)c1ccc2nc(Cc3cc(F)c(-c4cccc(OCc5nncs5)n4)cc3F)n(C[C@@H]3CCO3)c2c1` [Example 59, (S)-2-(4-(6-((1,3,4-thiadiazol-2-yl)methoxy)pyridin-2-yl)-2,5-difluorobenzyl)-1-(oxetan-2-ylmethyl)-1H-benzo[d]imidazole-6-carboxylic acid], 2.38 nM; that for `O=C(O)c1ccc2nc(Cc3cc(F)c(-c4cccc(OCc5cc(C(F)(F)F)no5)n4)cc3F)n(C[C@@H]3CCO3)c2c1` [Example 60, (S)-2-(2,5-difluoro-4-(6-((3-(trifluoromethyl)isoxazol-5-yl)methoxy)pyridin-2-yl)benzyl)-1-(oxetan-2-ylmethyl)-1H-benzo[d]imidazole-6-carboxylic acid], 1.44 nM.

Regarding `O=C(O)c1ccc2nc(Cc3cc(F)c(-c4cccc(OCc5ccc(C(F)(F)F)o5)n4)cc3F)n(C[C@@H]3CCO3)c2c1` [Example 61, (S)-2-(2,5-difluoro-4-(6-((5-(trifluoromethyl)furan-2-yl)methoxy)pyridin-2-yl)benzyl)-1-(oxetan-2-ylmethyl)-1H-benzo[d]imidazole-6-carboxylic acid], the EC50 was found to be 0.96 nM. This EC50 is about 1.5-fold lower than that of the compound before. The result for `O=C(O)c1ccc2nc(Cc3cc(F)c(-c4cccc(OCc5ccn(-c6ccc(F)cc6)n5)n4)cc3F)n(C[C@@H]3CCO3)c2c1` [Example 62, (S)-2-(2,5-difluoro-4-(6-((1-(4-fluorophenyl)-1H-pyrazol-3-yl)methoxy)pyridin-2-yl)benzyl)-1-(oxetan-2-ylmethyl)-1H-benzo[d]imidazole-6-carboxylic acid] reads 1.98 nM; that for `O=C(O)c1ccc2nc(Cc3cc(F)c(-c4cccc(OCc5ncc(C6CC6)o5)n4)cc3F)n(C[C@@H]3CCO3)c2c1` [Example 63, (S)-2-(4-(6-((5-cyclopropyloxazol-2-yl)methoxy)pyridin-2-yl)-2,5-difluorobenzyl)-1-(oxetan-2-ylmethyl)-1H-benzo[d]imidazole-6-carboxylic acid], 0.89 nM; that for `O=C(O)c1ccc2nc(Cc3cc(F)c(-c4cccc(OCc5ccn(CC(F)F)n5)n4)cc3F)n(C[C@@H]3CCO3)c2c1` [Example 64, (S)-2-(4-(6-((1-(2,2-difluoroethyl)-1H-pyrazol-3-yl)methoxy)pyridin-2-yl)-2,5-difluorobenzyl)-1-(oxetan-2-ylmethyl)-1H-benzo[d]imidazole-6-carboxylic acid], 6.38 nM. `O=C(O)c1ccc2nc(Cc3cc(F)c(-c4cccc(OCc5cc6n(n5)CCC6)n4)cc3F)n(C[C@@H]3CCO3)c2c1` [Example 65, (S)-2-(4-(6-((5,6-dihydro-4H-pyrrolo[1,2-b]pyrazol-2-yl)methoxy)pyridin-2-yl)-2,5-difluorobenzyl)-1-(oxetan-2-ylmethyl)-1H-benzo[d]imidazole-6-carboxylic acid] displayed an EC50 of 0.19 nM. Consider `O=C(O)c1ccc2nc(Cc3cc(F)c(-c4cccc(OCc5ccn(CC(F)(F)F)n5)n4)cc3F)n(C[C@@H]3CCO3)c2c1` [Example 66, (S)-2-(2,5-difluoro-4-(6-((1-(2,2,2-trifluoroethyl)-1H-pyrazol-3-yl)methoxy)pyridin-2-yl)benzyl)-1-(oxetan-2-ylmethyl)-1H-benzo[d]imidazole-6-carboxylic acid], for which the response was half-maximal at 6.65 nM (EC50). The value for `O=C(O)c1ccc2nc(Cc3cc(F)c(-c4cccc(OCc5nnc(C6CC6)o5)n4)cc3F)n(C[C@@H]3CCO3)c2c1` [Example 67, (S)-2-(4-(6-((5-cyclopropyl-1,3,4-oxadiazol-2-yl)methoxy)pyridin-2-yl)-2,5-difluorobenzyl)-1-(oxetan-2-ylmethyl)-1H-benzo[d]imidazole-6-carboxylic acid] was 6.52 nM.
